Data from PMC9556331, “Structural basis for directional chitin biosynthesis” (Nature, 2022).
Numbering of substitutions follows the chain as printed. Names and notes keep the numbering of the source.

Experiments:
chitin synthase PsChs1 [1] = target: T1, chitin synthase PsChs1 (Phytophthora sojae, UniProt G4Z2L3); assay: cryo-EM structure ([…] Å) plus enzyme inhibition kinetics (competitive Ki); format: biochemical
T1 construct: gene CHS1; full-length PsChs1 with C-terminal tandem twin Strep tag and Flag tag; residues 40-860 built, 743-758 disordered; homodimer

chitin synthase PsChs1 [2] = target: T1, chitin synthase PsChs1; assay: cryo-EM structure ([…] Å); format: binding
[3] = target: the molecule itself; assay: AUC; purified recombinant PsChs1 in the presence of detergent; molar mass of the main peak compared with the 107 kDa monomer
[4] = target: the molecule itself; assay: cryo-EM structure; purified protein at about 5 mg/ml in digitonin buffer; apo or with UDP-GlcNAc, UDP/(GlcNAc)3, UDP or NikZ; C2 symmetry imposed

Molecule: C[C@@H]([C@H](N)C(=O)N[C@H](C(=O)O)[C@H]1O[C@@H](n2ccc(=O)[nH]c2=O)[C@H](O)[C@@H]1O)[C@H](O)c1ccc(O)cn1 [NikZ, nikkomycin Z]
- Ki (chitin synthase PsChs1 [1]): 151 ± 4.8 µM

Molecule: O=c1ccn([C@@H]2O[C@H](COP(=O)(O)OP(=O)(O)O)[C@@H](O)[C@H]2O)c(=O)[nH]1 [UDP]
- cryo-EM structure (3.1 Å) (chitin synthase PsChs1 [2]): The UDP-bound dimeric PsChs1 structure represents its nascent chitin-released state

B1: Phytophthora sojae chitin synthase PsChs1 (enzyme)
chain: MSGAPPPSSGFAPRSYGQQPLSHAPRSSMMSVEYDGIPLPPPSIRSCGSQQYVTSYIPTGAAFPPSSVQDMISSMKSYASATDLVRTYSEIPSVEEALSTLDRAAAALNARRYRDALKLYLEGGYAMANVAERQANPKICNLLTSKGFETLNWCARLCDWIEGRIKEKHPRPGVHKVGIPVSNWDEDWVGPFMDEEEARRMWYTPVYCPHPIDFSNLGYRLRCVETGRRPRLMICITMYNEGPQQLKATLKKLANNLAYLKEQMPGDEKSLTGAFAGDDVWQNVLVCIVADGREQVHPKTLDYLEAIGLYDEDLLTINSAGIGAQCHLFEHTLQLSVNGKCLLPIQTVFALKENKASKLDSHHWYFNAFAEQIQPEYTAVMDVGTMLTKSALYHLLFAFERNHQIGGACGQLTVDNPFENLSNWVISAQHFEYKISNILDKSLESCFGFISVLPGAFSAYRYEAIRGAPLDAYFQTLNIELDVLGPFIGNMYLAEDRILSFEVVARKNCNWTMHYVKDAVARTDVPHDLVGLISQRKRWLNGAFFATLFSIWNWGRIYSESKHTFVRKMAFLVFYVYHLLYTAFGFFLPANLYLALFFIVFQGFQQNRLEFIDTSEYSQTVLDCAVYIYNFSYLFGLLMLIIIGLGNNPKHMKLTYYFVGAVFGLMMMLSSLVGAGIFFSTPATVHSIVVSILTVGVYFIASALHGEVHHIFMTFTHYTALIPSFVNIFTIYSFCNLQDLSWGTKGLHDDPLLAASLDETEKGDFKDVIAKRRALEELRREEKERVENRKKNFEAFRTNVLLTWAFSNLIFALFVVYFASSSTYMPVLYIFVASLNTCRLLGSIGHWVYIHTEGLRGRVIDKSECGNGTGRYPQNSYVQLEEHYAALAEDQRTYASGRTNASVRTVNDVSSAA
notes: also called native PsChs1; wild-type PsChs1
- stoichiometry N [3]: 2

B2: PsChs1 E495A (used for the UDP-GlcNAc-bound structure) (enzyme)
chain: B1 chain with E495A
notes: source: HEK293F, transiently transfected, purified as the native PsChs1 (Strep-TactinXT, anti-Flag M2 resin, SEC)
- stoichiometry N [4]: 2
